# Measurements reported in patent publication US9506938B2, “Methods for measuring platelet reactivity of individuals treated with drug eluting stents” (ACCUMETRICS, INC., priority 2007, dated 2016).
# Several values for one entry are separate records, joined by “and”; a condition that tells them apart may be missing. Equal values may be shown once. Read-outs that look alike come from different tables or passages of the source.
# Assays:
# [1] = system: ADP-induced human platelet aggregation; settings: read-out: IC50 for the inhibition of ADP-induced human platelet aggregation; cited from earlier work
# [2] = system: patients undergoing PCI with DES
# Description: Interventional strategy was at the discretion of the operator. Either intra-procedural unfractionated heparin (with a goal-activated clotting time>250 s) or bivalirudin was used during the procedure. All patients received SES, and they received aspirin 325 mg on the day of the procedure regardless of previous aspirin use.
# “Technical success” was defined as a final diameter stenosis ≦30% and thrombolysis in myocardial infarction (TIMI) flow grade 3. Clinical endpoints measured were cardiovascular (CV) death, non-fatal myocardial infarction (MI), and stent thrombosis. “MI over follow-up” was defined as any typical rise and fall of cardiac biomarkers in the setting of clinical signs or symptoms consistent with cardiac ischaemia, following the American College of Cardiology definition (Cannon, et al., J. Am. Coll. Cardiol. (2001) 38:2114-2130). The Academic Research Consortium definitions were used for “stent thrombosis” (definite, probable, and possible) (Mauri, et al., N. Engl. J. Med. (2007) 356:1020-1029). “Subacute stent thrombosis” was defined as stent thrombosis occurring after discharge to 30 day follow-up, and late-stent thrombosis was defined as stent thrombosis occurring between 30 day and 6 month follow-ups.
# The computer-based analysis program SPSS (Statistical Package for the Social Sciences, 12.0 for PC, SPSS Inc., Chicago, Ill., USA) was used for statistical calculations. […] Comparison of continuous variables was performed using Student's t-test. The χ^2 test was used to detect differences in categorical variables, and a Fisher's exact test was used when any expected cell count was <5 for a 2 by 2 table. The Kolmogorov-Smirnov test was used to test for normality. A receiver-operating characteristic (ROC) curve analysis was used to determine the ability of the VERIFYNOW™ P2Y12 assay to distinguish between patients with and without post-discharge events after PCI. The optimal cut-off point was calculated by determining the post-treatment PRU that provided the greatest sum of sensitivity and specificity. Bootstrap validation was performed using R software. Survival curves were generated using the Kaplan-Meier method, and the difference between curves was assessed by log-rank test. A P-value<0.05 was considered significant.
# P2Y12 receptor [3] = biological target: T1, P2Y12 receptor (Homo sapiens, UniProt Q9H244); assay: VerifyNow P2Y12 assay, post-treatment platelet reactivity (PRU) in patients with sirolimus-eluting stents (Example 3); format: in vivo; design: The patient sample is usually citrated whole blood; endogenous in cells; host or cells: platelets in citrated whole blood of patients
# T1 sequence (Q9H244 whole entry): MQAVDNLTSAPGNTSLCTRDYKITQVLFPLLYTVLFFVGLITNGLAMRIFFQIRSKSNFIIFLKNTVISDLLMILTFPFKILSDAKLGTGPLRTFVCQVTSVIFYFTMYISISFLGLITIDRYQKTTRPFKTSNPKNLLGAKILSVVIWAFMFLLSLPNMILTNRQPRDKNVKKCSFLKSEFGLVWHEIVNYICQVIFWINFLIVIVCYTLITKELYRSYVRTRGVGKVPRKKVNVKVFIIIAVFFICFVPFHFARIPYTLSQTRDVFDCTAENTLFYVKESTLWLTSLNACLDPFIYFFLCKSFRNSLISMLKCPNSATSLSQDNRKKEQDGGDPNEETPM
# Description: Patients on clopidogrel therapy or who were clopidogrel naïve were eligible for inclusion. […] The assay contains […] and 22 nM prostaglandin E1 to reduce the activation contribution from ADP binding to P2Y1 receptors. […] With this assay, a higher PRU reflects greater ADP-mediated platelet reactivity. The mean coefficient of variation of test precision has been reported to be 3.2% in patients with coronary artery disease. Interventional strategy was at the discretion of the operator.
# P2Y12 receptor [4] = biological target: T1, P2Y12 receptor; settings: for percentage of inhibition: on clopidogrel at time of procedure; for percentage inhibition: clopidogrel naive, loaded with 600 mg
# Text: The VerifyNow™ System instrument is a turbidimetric-based optical detection system that measures platelet induced aggregation as an increase in light transmittance. The system includes an analyzer, disposable cartridge and controls. The cartridge contains reagents based on microparticle agglutination technology. The quality control system includes an electronic control, two levels of assayed “wet” controls (WQC), an in-cartridge humidity sensor, an in-packaging temperature indicator, and a test for concurrence of two assay channels. […] For use in the present methods the test cartridge of the system contains a lyophilized preparation comprising particles with passively bound GPIIb/IIIa receptor ligand, a composition of ADP and PGE1, and buffer. The patient sample is usually citrated whole blood, which is automatically dispensed from the blood collection tube into the cartridge by the analyzer, with no blood handling required by the user. The interaction is monitored by the infrared absorbency characteristics of the particles. As the particles interact with the platelets, the agglutination of the particles is measured through the optical system of the VerifyNow™ analyzer. The agglutination is detected as an increase in the transmission of infrared light through the sample. The reaction kinetics are analyzed and translated into “P2Y12 Response Units”, PRU.
# Whole blood was obtained from the side port of the arterial sheath prior to anticoagulant or anti-thrombin therapy and by phlebotomy 12 hours post-PCI.
# All patients received 325 mg uncoated aspirin the day of the procedure regardless of previous aspirin use. […] Either intra-procedural heparin (with a goal activated clotting time of >250 sec) or bivalirudin were administered during the procedure at operator discretion.
# Patients were judged to be insulin resistant if their Homeostasis Model Assessment index, calculated as: [fasting insulin (μU/mL)]*[fasting glucose (mg/dl)]/405, was >3.0 or if they had diabetes requiring medication.
# platelet aggregation = settings: Muller et al. 2003; cited from earlier work
# [5] = after discharge, 6 month follow-up, all patients
# [6] = clopidogrel for minimum 3 months, high reactivity (n = 121)
# [7] = clopidogrel for minimum 3 months, lower reactivity (n = 252)
# [8] = clopidogrel for minimum 3 months, overall group (n = 373)
# [9] = clopidogrel through 6 month follow-up, high reactivity (n = 108)
# [10] = clopidogrel through 6 month follow-up, lower reactivity (n = 258)
# [11] = clopidogrel through 6 month follow-up, overall group (n = 317)
# [12] = patients with high post-treatment reactivity
# [13] = patients without high post-treatment reactivity
compound,measurement,setting,value
"CCCCC[C@H](O)/C=C/[C@H]1[C@H](O)CC(=O)[C@@H]1CCCCCCC(=O)O [PGE1, prostaglandin E1]",IC50,[1],~40 nM
COC(=O)[C@H](c1ccccc1Cl)N1CCc2sccc2C1 [clopidogrel],overall rate of late-stent thrombosis,[2]; 30 day to 6 month follow-up,0.8%
same,Non-fatal MI,[2]; [5],1.3%
same,"combined endpoint of CV death, non-fatal MI, or stent thrombosis",[2]; [5],2.6%
same,episodes of stent thrombosis,[2]; [5],1.6%
same,Non-fatal MI,[2]; [6],2 (1.7) n (%)
same,Stent thrombosis,[2]; [6],5 (4.1) n (%)
same,Non-fatal MI,[2]; [7],2 (0.8) n (%)
same,Stent thrombosis,[2]; [7],0 n (%)
same,Non-fatal MI,[2]; [8],4 (1.1) n (%)
same,Stent thrombosis,[2]; [8],5 (1.3) n (%)
same,Non-fatal MI,[2]; [9],2 (1.9) n (%)
same,Stent thrombosis,[2]; [9],5 (4.6) n (%)
same,Non-fatal MI,[2]; [10],2 (1.0) n (%)
same,Stent thrombosis,[2]; [10],0 n (%)
same,Non-fatal MI,[2]; [11],4 (1.3) n (%)
same,Stent thrombosis,[2]; [11],5 (1.6) n (%)
same,overall rate of subacute stent thrombosis,[2]; discharge to 30 day follow-up,0.8%
same,rate of CV mortality,[2]; [12],2.8%
same,"rate of all-cause death, non-fatal MI, or stent thrombosis",[2]; [12],6.5%
same,rate of any stent thrombosis,[2]; [12],4.6%
same,"rate of combined endpoint of CV death, non-fatal MI, or stent thrombosis",[2]; [12],6.5%
same,rate of definite or probable stent thrombosis,[2]; [12],2.8%
same,"survival rate free from the combined endpoint of CV death, non-fatal MI, or stent thrombosis",[2]; [12],91.4%
same,rate of CV mortality,[2]; [13],0%
same,"rate of all-cause death, non-fatal MI, or stent thrombosis",[2]; [13],1.4%
same,rate of any stent thrombosis,[2]; [13],0%
same,"rate of combined endpoint of CV death, non-fatal MI, or stent thrombosis",[2]; [13],1.0%
same,rate of definite or probable stent thrombosis,[2]; [13],0%
same,"survival rate free from the combined endpoint of CV death, non-fatal MI, or stent thrombosis",[2]; [13],99.0%
same,mean post-treatment reactivity,"P2Y12 receptor [3]; all patients, n = 380",184±85 PRU
same,post-treatment reactivity,"P2Y12 receptor [3]; clopidogrel-naive patients, 12 h after 600 mg loading dose",183±94 PRU
same,post-treatment reactivity of the patients who had stent thrombosis while taking antiplatelet therapy,P2Y12 receptor [3]; individual patients,283 PRU and 292 PRU and 236 PRU and 244 PRU and 271 PRU
same,post-treatment reactivity,P2Y12 receptor [3]; patients on previous clopidogrel therapy,186±73 PRU
same,platelet reactivity,P2Y12 receptor [3]; patients with adverse events,242 PRU
same,platelet reactivity,P2Y12 receptor [3]; patients without adverse events,186 PRU
same,percentage of inhibition,"P2Y12 receptor [4]; Patient No. 1, acute thrombosis 80 minutes after PCI",0%
same,percentage of inhibition,"P2Y12 receptor [4]; Patient No. 2, sub-acute thrombosis 6 days following PCI",0%
same,percentage inhibition,"P2Y12 receptor [4]; Patient No. 3, sub-acute thrombosis 34 days following PCI",0%
same,percentage inhibition,"P2Y12 receptor [4]; Patient No. 4, sub-acute thrombosis 8 days following PCI",44%
same,share of patients undergoing PCI with clopidogrel-induced platelet inhibition <10%,"P2Y12 receptor [4]; point-of-care assay, N = 280",one quarter
same,patients receiving the drug who did not achieve the expected platelet aggregation inhibition,platelet aggregation,at least 10%
bivalirudin,post-treatment reactivity on clopidogrel by intra-procedural anticoagulant,P2Y12 receptor [3]; patients receiving intra-procedural heparin or bivalirudin,184±84 PRU
